In patent publication US6710044B2, “Technical field” (NeuroSearch A/S, priority 1996, dated 2004):

Legend:
[1] = target: benzodiazepine receptor sites (GABAA receptor complex); assay: In vitro inhibition of 3H-flunitrazepam (3H-FNM) binding, cerebral cortex membranes; conditions: inhibition of specific binding of 3H-FNM (1 nM), rat cerebral cortex membranes, 40 min at 2° C.
Procedure: The affinity of various potential ligands for the benzodiazepine receptor sites can thus be evaluated by estimating the ability of test compounds to displace ^3H-flunitrazepam.
Tissue Preparation: Preparations are performed at 0-4° C. unless otherwise indicated.
Cerebral cortex from male Wistar rats (150-200 g) is homogenized for 5-10 sec in 20 ml Tris-HCl (30 mM, pH 7.4) using an Ultra-Turrax homogenizer. The suspension is centrifuged at 27,000×g for 15 min, and the pellet is washed three times with buffer (centrifuged at 27,000×g for 10 min). The washed pellet is homogenized in 20 ml of buffer and incubated on a water bath (37° C.) for 30 min to remove endogenous GABA and then centrifuged for 10 min at 27,000×g. The pellet is then homogenized in buffer and centrifuged for 10 min at 27,000×g. The final pellet is resuspended in 30 ml buffer and the preparation is frozen and stored at −20° C.
Assay: The membrane preparation is thawed and centrifuged at 2° C. for 10 min at 27,000×g. The pellet is washed twice with 20 ml 50 mM Tris-citrate, pH 7.1 using an Ultra-Turrax homogenizer and centrifuged for 10 min at 27,000×g. The final pellet is resuspended in 50 mM Tris-citrate, pH 7.1 (500 ml buffer per g of original tissue), and then used for binding assays. Aliquots of 0.5 ml tissue are added to 25 μl of test solution and 25 μl of ^3H-FNM (1 nM, final concentration), mixed and incubated for 40 min at 2° C. Non-specific binding is determined using clonazepam (1 μM, final concentration). After incubation the samples are added 5 ml of ice-cold buffer and poured directly onto Whatman GF/C glass fibre filters under suction and immediately washed with 5 ml ice-cold buffer. The amount of radioactivity on the filters is determined by conventional liquid scintillation counting. Specific binding is total binding minus non-specific binding.
The test value is calculated as the IC50 (the concentration (nM) of the test substance which inhibits the specific binding of ^3H—FNM by 50%).

SMILES | melting point | IC50 [1]
CCON=C(C)c1ccc2c(c1)ncn2-c1cccc(C2CCCN(C)C2)c1.Cl (stereo not drawn) [compound 3f7, 5-acetyl-1-(3-(1-methylpiperidin-3-yl)phenyl)benzimidazole O-ethyl oxime hydrochloride] | 112 to 114 °C | 18 nM
CN1CCCC(c2cccc(-n3cnc4cc(C=NO)ccc43)c2)C1 (stereo not drawn) [compound 3b4, 5-Formyl-1-(3-(1-methyl-3-piperidinyl)phenyl)benzimidazole oxime] | 214 to 218 °C | 4 nM
O=C(OCc1ccccn1)c1cccc(-n2cnc3cc(-c4ccccc4)ccc32)c1 [compound 6b3, 5-Phenyl-1-(3-(2-picolyloxycarbonyl)phenyl)benzimidazole] | 149 to 150 °C | 8 nM
CCOC(=O)C(=CN1CCN(c2cccc(-n3cnc4cc(-c5ccoc5)ccc43)c2)CC1)C(=O)OCC [compound 6c6, 5-(3-Furanyl)-1-(3-(4-(2,2-bis(ethoxycarbonyl)ethenyl)piperazin-1-yl)phenyl)-benzimidazole] | 97 to 102 °C | 7 nM
CCOC(=O)c1ccc2c(c1)ncn2-c1cccc(N2CCN(CC(=O)OC)CC2)c1.Cl [compound 4a5, 5-(Ethoxycarbonyl)-1-(3-(4-(methoxycarbonylmethyl)piperazin-1-yl)phenyl)-benzimidazole, hydrochloride] | 185 to 186 °C | 50 nM
N#Cc1ccc2c(c1)ncn2-c1cccc(N2CCCC2)c1 [compound 3a2, 5-Cyano-1-(3-(1-pyrrolidinyl)phenyl)benzimidazole] | 171 to 172 °C | 41 nM
OCCN1CCN(c2cccc(-n3cnc4cc(-c5ccoc5)ccc43)c2)CC1 [compound 3i3, 5-(3-Furanyl)-1-(3-(4-(2-hydroxyethyl)piperazin-1-yl)phenyl)benzimidazole] | 137 to 140 °C | 5 nM
CCOC(=O)c1cccc(-n2cnc3cc(-c4ccno4)ccc32)c1 [compound 6a2, 5-(5-Isoxazolyl)-1-(3-ethoxycarbonyl)phenyl benzimidazole] | 156 to 157 °C | 3 nM
COC(=O)CON=C(C)c1ccc2c(c1)ncn2-c1cccc(N2CCN(CCO)CC2)c1 [compound 5c1, 5-Acetyl-1-(3-(4-(2-hydroxyethyl)piperazin-1-yl)phenyl)benzimidazole O-(methoxy-carbonylmethyl) oxime] | 117 to 119 °C | 19 nM
CN1CCCC(c2cccc(-n3cnc4cc(C(=O)OCc5cccnc5)ccc43)c2)C1 (stereo not drawn) [compound 4h, 5-(3-Picolyloxycarbonyl)-1-(3-(1-methylpiperidin-3-yl)phenyl)benzimidazole] |  | 80 nM
COC(=O)Cc1ccc2c(c1)ncn2-c1cccc(N2CCN(C)CC2)c1.Cl [compound 4l1, 5-(Methoxycarbonylmethyl)-1-(3-(4-methylpiperazin-1-yl)phenyl)benzimidazole, hydrochloride] | 140 to 142 °C | 25 nM
